Measurements as given in patent publication US9775859B2, “Methods and compositions for preventing and treating a disease related to glycan dysregulation” (Sinai Health System, priority 2005, dated 2017).
Where “and” joins values, the source holds several entries; their conditions need not be identical. Equal values may be shown once. Entries after “also recorded” stand apart in the source; their conditions may differ.

Assays:
[1] = system: PL/J and C57/B6 T cell cultures; test: L-PHA staining of mouse CD3+ T cells stimulated with anti-CD3, FACS; type: cell-based; conditions: listed as SW
Protocol: Mice used for L-PHA staining and quantitative RT-PCR were sex and age matched. […] 129/Sv mice were from an original Mgat5 gene targeted population (28). All other mice (SJL, NOD, Balb/c and B10.S) were obtained from Jackson Laboratories. […] Mouse and Jurkat cells were stained with L-PHA and LEA by first blocking with PBA (2% bovine serum albumin/0.01% azide/PBS) for 10 min at 4° C. and then incubated with 4 μg/ml of L-PHA-FITC (Vector Laboratories Inc.) or 20 μg/ml of LEA-FITC (Sigma) in PBA for 40 min at 4° C. and analyzed by a BD FACSCalihur (BD Pharmingen, San Diego, Calif.). The level of lectin binding was normalized by untreated control and calculated as a percentage (Sample intensity/control intensity-1) %.
Mice used for L-PHA staining and quantitative RT-PCR were sex and age matched. […] 129/Sv mice were from the original Mgat5 gene targeted population (28). All other mice (SJL, NOD, Balb/c and B10.S) were obtained from Jackson Laboratories. Mouse cells were stained with anti-CD4 (RM4-5), anti-CD8 (53-6.7), anti-CD45R (RA3-6B2) from eBioscience, and L-PHA (4 μg/ml) and LEA (20 μg/ml) from Sigma. […] The indicated monosaccharides and/or metabolites were added daily except glucose which was added only at time zero. […] The plateau or highest non-toxic dose is shown.

[2] = system: PL/J and C57/B6 T cell cultures; test: CFSE proliferation of mouse CD3+ T cells stimulated with anti-CD3; type: cell-based; conditions: wild type PL/J and C57/B6 T cells
CHO cells [3] = test: L-PHA and ConA lectin staining of CHO cells by FACS; type: cell-based, Chinese Hamster; conditions: CHO cells treated with inhibitor
Excerpt: (§1) For comparison of N-glycan profiles of mice and human MS patients, CHO cells and CHO cells deficient at 5 different steps in the N-glycan pathway (Glucosidase I, Mannosidase I, MGAT1, Mannosidase II and MGAT5, FIG. 7A) were used to define relative L-PHA and Concanavillin A (ConA) lectin staining levels by FACS along with MALDI TOF N-glycan processing profiles. […] Indeed, a human infant with severe human glucosidase I deficiency accumulates Glc3Man (885 A ion in FIG. 16A, 21C) in the urine, a 4 hexose oligomer which derives from the Glucosidase I substrate Glc3Man9GlcNAc2 via endo-mannosidase activity (70). […] Such activity would produce Man8GlcNAc2, Man7GlcNAc2 and Man6GlcNAc2 structures and allow processing by Mannosidase I/II. Indeed, N-glycans of these 3 compositions accumulate in Glucosidase I/II inhibited cells when Mannosidase I activity is blocked with DMN (69). The larger structures Glc3Man9GlcNAc2 (mass 3008) and Glc3Man7GlcNAc2 (mass 2600) were also observed (67), however they were at lower relative intensities compared to the A ion group (FIG. 21C). […] Mixing CHO and Lec1 cells in various proportions confirmed that relative differences in expression of N-glycan structures can be determined using MALDI TOF (FIG. 21G).

CHO cells [4] = test: MALDI-TOF mass spectroscopy N-glycan profile of CHO cells; type: cell-based, Chinese Hamster; conditions: CHO cells treated with inhibitor
Protocol: This was done as a service at the Glycotechnology core facility, a resource of the Glycobiology Research and Training Center (GRTC) at the University of California, San Diego. CD3+ murine T cells (6×10^6), resting PBMCs from human controls and MS subjects (6×10^6) and CHO cells (10×10^6) were lysed with 1% SDS in 100 mM Tris pH 7.4, dialyzed to remove SDS, digested with trypsin to generate glycopeptides and treated with PNGaseF to release the N-glycans. To focus on early processing, N-glycans were desialylated by mild acid digestion prior to permethylation and MALDI-TOF mass spectroscopy. Monoisotopic peaks in the spectra were identified using GlycanMass and GlycoMod online software, with specific targeting of the N-glycan intermediates occurring during Golgi processing.
as §1

MGAT1 = target: T1, MGAT1 (Homo sapiens, UniProt P26572); conditions: read-out: Km for UDP-GlcNAc; cited from earlier work
T1 sequence (P26572 1-445): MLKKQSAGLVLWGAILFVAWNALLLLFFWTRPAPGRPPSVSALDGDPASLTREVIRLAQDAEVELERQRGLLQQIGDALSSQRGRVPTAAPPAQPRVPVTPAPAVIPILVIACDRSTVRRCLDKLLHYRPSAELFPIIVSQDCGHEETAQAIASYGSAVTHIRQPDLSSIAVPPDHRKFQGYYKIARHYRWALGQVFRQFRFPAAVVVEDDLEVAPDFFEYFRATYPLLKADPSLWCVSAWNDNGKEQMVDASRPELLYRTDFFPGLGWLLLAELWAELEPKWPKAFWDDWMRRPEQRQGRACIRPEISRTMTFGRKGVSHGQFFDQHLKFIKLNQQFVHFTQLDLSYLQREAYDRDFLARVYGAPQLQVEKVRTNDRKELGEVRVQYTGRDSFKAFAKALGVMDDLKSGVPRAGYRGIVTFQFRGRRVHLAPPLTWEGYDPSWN

MGAT2 = target: T2, MGAT2 (Homo sapiens, UniProt Q10469); conditions: read-out: Km for UDP-GlcNAc; cited from earlier work
T2 sequence (Q10469 1-447): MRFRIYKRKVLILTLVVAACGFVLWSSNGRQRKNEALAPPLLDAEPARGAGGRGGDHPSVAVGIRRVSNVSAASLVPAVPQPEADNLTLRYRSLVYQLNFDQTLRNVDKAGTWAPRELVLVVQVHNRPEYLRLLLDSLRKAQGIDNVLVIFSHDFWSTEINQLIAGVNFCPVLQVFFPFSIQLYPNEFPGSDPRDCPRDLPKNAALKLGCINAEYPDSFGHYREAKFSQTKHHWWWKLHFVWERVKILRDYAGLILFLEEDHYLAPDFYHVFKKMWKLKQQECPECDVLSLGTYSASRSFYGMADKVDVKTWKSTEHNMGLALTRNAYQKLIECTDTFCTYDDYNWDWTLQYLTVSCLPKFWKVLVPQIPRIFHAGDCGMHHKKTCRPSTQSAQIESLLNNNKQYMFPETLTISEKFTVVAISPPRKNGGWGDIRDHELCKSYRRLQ

MGAT4 = conditions: read-out: Km for UDP-GlcNAc; cited from earlier work
MGAT5 enzyme = target: T3, MGAT5 enzyme (Homo sapiens, UniProt Q09328); conditions: read-out: Km for UDP-GlcNAc; cited from earlier work
T3 sequence (Q09328 1-741): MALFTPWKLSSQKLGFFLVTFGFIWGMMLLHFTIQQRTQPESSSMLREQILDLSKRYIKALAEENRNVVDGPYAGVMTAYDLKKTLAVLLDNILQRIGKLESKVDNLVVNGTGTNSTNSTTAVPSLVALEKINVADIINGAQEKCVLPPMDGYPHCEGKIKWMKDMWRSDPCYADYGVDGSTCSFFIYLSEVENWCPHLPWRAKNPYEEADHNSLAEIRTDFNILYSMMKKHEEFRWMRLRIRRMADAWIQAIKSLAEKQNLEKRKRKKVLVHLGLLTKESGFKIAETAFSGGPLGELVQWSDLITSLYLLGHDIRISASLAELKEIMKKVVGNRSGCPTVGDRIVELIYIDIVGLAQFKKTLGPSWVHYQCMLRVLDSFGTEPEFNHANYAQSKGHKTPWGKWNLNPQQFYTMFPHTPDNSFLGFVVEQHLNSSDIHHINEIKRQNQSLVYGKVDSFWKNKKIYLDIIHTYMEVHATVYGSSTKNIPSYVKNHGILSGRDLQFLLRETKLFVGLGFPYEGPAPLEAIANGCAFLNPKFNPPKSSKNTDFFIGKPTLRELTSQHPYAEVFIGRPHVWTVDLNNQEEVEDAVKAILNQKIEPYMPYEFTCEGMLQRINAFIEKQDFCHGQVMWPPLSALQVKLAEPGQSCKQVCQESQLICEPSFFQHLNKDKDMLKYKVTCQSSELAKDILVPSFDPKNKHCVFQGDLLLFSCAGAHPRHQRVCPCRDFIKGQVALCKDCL

[5] = system: UDP-GlcNAc/UMP transporter; conditions: UDP-GlcNAc/UMP transport, model parameter; cited from earlier work

SMILES | up-regulation of β1,6 GlcNAc branched N-glycans following stimulation ([1]; anti-CD3, minimal concentrations) | resting levels of β1,6 GlcNAc branched N-glycans ([1]; minimal concentrations) | reversal of supplement effect on proliferation by blocking Mgat5 N-glycan expression [2] | high-mannose structures as seen by ConA staining (CHO cells [3]) | β1,6GlcNAc-branched N-glycan expression by L-PHA staining (CHO cells [3]) | MALDI TOF profile of N-glycans (accumulated structures) (CHO cells [4]) | β1,6GlcNAc-branched tetra-antennary N-glycans (mass 2969, structure G) (CHO cells [4]) | Km (MGAT1) | Km (MGAT2) | Km (MGAT4) | Km (MGAT5 enzyme) | Km [5]
O[C@H]1[C@H]2[C@H](O)CCCN2C[C@H]1O [swainsonine] | significantly attenuated | without affecting; also recorded: do not affect | reversed | increased | dramatic reductions | accumulation of hybrid structures | absent |  |  |  |  | 
CC(=O)N[C@H]1[C@@H](OP(=O)(O)OP(=O)(O)OC[C@H]2O[C@@H](n3ccc(=O)[nH]c3=O)[C@H](O)[C@@H]2O)O[C@H](CO)[C@@H](O)[C@@H]1O [UDP-GlcNAc, UDP-N-acetylglucosamine] |  |  |  |  |  |  |  | 0.04 mM | 0.9 mM | ~5 mM | ~10 mM and ~11 mM and 11 mM | 0.00713 mM
